In the NIST ThermoML archive (doi:10.1016/j.tca.2014.06.017):
Numbers after ± are expanded uncertainties.

Settings: Crystal; DTA

Normal melting temperature: 162 ± 11 °C
SMILES: OC[C@@H](O)[C@@H](O)[C@H](O)[C@H](O)CO [D-mannitol]
